# Like-named read-outs stand apart in the source and are kept apart here.
# Legend:
# [1] = test system: Swiss 3T3 fibroblast cells
# Procedure: Swiss 3T3 Mouse fibroblast cells and HaCAT Human keratinocytes were obtained from ATCC and cultured in DMEM medium supplemented with 10% FBS. The confluent cultures are harvested by trypsinization and expanded during two more passages before they were used for the experiments. Medium and other culture components were renewed after 48-72 h. All cell cultures were maintained in a humidified atmosphere at 37° C. in 95% air and 5% CO2.
# UV lamp of 14.7 W, 0.3 A, 55V with an intensity of 33.3 μW/cm^2 from Sankyo Denki Co., Ltd.
# The neutral red (NR) uptake assay: The NR cytotoxicity assay procedure is a cell survival/viability chemosensitivity assay, based on the ability of viable cells to incorporate and bind neutral red, a supravital dye. NR is a weak cationic dye that readily penetrates cell membranes by non-ionic diffusion, accumulating intracellularly in lysosomes, where it binds with anionic sites in the lysosomal matrix. Alterations of the cell surface or the sensitive lysosomal membrane lead to lysosomal fragility and other changes that gradually become irreversible. Such changes brought about by UV exposure result in a decreased uptake and binding of NR. It is thus possible to distinguish between viable, damaged, or dead cells, which are the basis of this assay. The dye taken up by the cells is subsequently extracted and measured. The dye was dissolved in distilled water at a concentration of 0.5 mg/100 μl. 80 μl of this stock solution was dissolved in 15 ml of pre warmed DMEM medium. The developer solution consists of 25 ml of water, 24.5 ml of ethanol and 0.5 ml of glacial acetic acid. The NRU dye and the developer solutions are to be made fresh before use. After UV exposure and consequent incubation for 72 hrs, the culture medium is replaced with NRU dye and incubated for 3 hrs at 37° C., after which the dye is washed off thrice with PBS. The dye is dissolved in 100 μl of developer solution and incubated at RT for 20 min. The OD was determined at 492 nm using a microplate reader.
# Swiss 3T3 fibroblasts were plated in a 96 well micropipette at a seeding density of 3000 cells per well. […] After exposure, the cells were incubated in a CO2 incubator for 48 hrs and developed by the NRU staining technique to analyze the cell viability. The SPF of 1.25% OMC was determined with respect to the untreated cells.
# [2] = test system: Swiss 3T3 fibroblast cells; experiment: Percentage of UV protection in Swiss 3T3 fibroblast cells (NRU staining); format: cell-based, mouse; conditions: UV B 5 minutes
# Procedure: The unexposed region of the plate was covered by aluminum foil. […] The percentage of UV protection was calculated with respect to unexposed cells.
smiles,measurement,setting,value
"CCCCC(CC)COC(=O)C=Cc1ccc(OC)cc1 (stereo not shown) [OMC, Octyl methoxy cinnamate]",minimal cytotoxic dose (MCDp) for protected cells,[1]; 1.25% OMC,0.144 J/cm^2
same,% UV toxicity,"[1]; 1.25% OMC, UV dosage 0.0072 J/cm^2",0%
same,% UV toxicity,"[1]; 1.25% OMC, UV dosage 0.0216 J/cm^2",0%
same,% UV toxicity,"[1]; 1.25% OMC, UV dosage 0.036 J/cm^2",0%
same,% UV toxicity,"[1]; 1.25% OMC, UV dosage 0.0504 J/cm^2",0%
same,% UV toxicity,"[1]; 1.25% OMC, UV dosage 0.072 J/cm^2",0%
same,% UV toxicity,"[1]; 1.25% OMC, UV dosage 0.216 J/cm^2",39.62%
same,minimal cytotoxic dose (MCDp) for protected cells,[1]; 7% OMC,0.54 J/cm^2
same,SPF (MCDp/MCDu),"[1]; 7% OMC, MCDu 0.0216 J/cm^2",25
same,% UV toxicity,"[1]; 7% OMC, UV dosage 0.0072 J/cm^2",0%
same,% UV toxicity,"[1]; 7% OMC, UV dosage 0.0216 J/cm^2",0%
same,% UV toxicity,"[1]; 7% OMC, UV dosage 0.036 J/cm^2",0%
same,% UV toxicity,"[1]; 7% OMC, UV dosage 0.0504 J/cm^2",0%
same,% UV toxicity,"[1]; 7% OMC, UV dosage 0.072 J/cm^2",0%
same,% UV toxicity,"[1]; 7% OMC, UV dosage 0.18 J/cm^2",0%
same,% UV toxicity,"[1]; 7% OMC, UV dosage 0.432 J/cm^2",0%
same,% UV toxicity,"[1]; 7% OMC, UV dosage 0.54 J/cm^2",7%
same,% UV toxicity,"[1]; 7% OMC, UV dosage 0.648 J/cm^2",9%
same,% UV protection,"[2]; 0.15% OMC in culture medium, vs unexposed cells",56%
same,% UV protection,[2]; 0.31% OMC in culture medium,71%
same,% UV protection,[2]; 0.62% OMC in culture medium,77%
same,% UV protection,[2]; 1.25% OMC in culture medium,90%

# From US20100075360A1, “UV BASED CELL VIABILITY AS AN INDICATOR OF SUN PROTECTION FACTOR AND METHODS OF MEASUREMENT THEREOF” (priority 2008, published 2010)
